Measurements as given in BindingDB's records for PubMed 36395995 (University of Jinan, 2023).

What follows are compounds tested against Maltase-glucoamylase (Homo sapiens, UniProt O43451) (assay: Inhibition of alpha-glucosidase (unknown origin)).
Chain of Maltase-glucoamylase (O43451 whole entry): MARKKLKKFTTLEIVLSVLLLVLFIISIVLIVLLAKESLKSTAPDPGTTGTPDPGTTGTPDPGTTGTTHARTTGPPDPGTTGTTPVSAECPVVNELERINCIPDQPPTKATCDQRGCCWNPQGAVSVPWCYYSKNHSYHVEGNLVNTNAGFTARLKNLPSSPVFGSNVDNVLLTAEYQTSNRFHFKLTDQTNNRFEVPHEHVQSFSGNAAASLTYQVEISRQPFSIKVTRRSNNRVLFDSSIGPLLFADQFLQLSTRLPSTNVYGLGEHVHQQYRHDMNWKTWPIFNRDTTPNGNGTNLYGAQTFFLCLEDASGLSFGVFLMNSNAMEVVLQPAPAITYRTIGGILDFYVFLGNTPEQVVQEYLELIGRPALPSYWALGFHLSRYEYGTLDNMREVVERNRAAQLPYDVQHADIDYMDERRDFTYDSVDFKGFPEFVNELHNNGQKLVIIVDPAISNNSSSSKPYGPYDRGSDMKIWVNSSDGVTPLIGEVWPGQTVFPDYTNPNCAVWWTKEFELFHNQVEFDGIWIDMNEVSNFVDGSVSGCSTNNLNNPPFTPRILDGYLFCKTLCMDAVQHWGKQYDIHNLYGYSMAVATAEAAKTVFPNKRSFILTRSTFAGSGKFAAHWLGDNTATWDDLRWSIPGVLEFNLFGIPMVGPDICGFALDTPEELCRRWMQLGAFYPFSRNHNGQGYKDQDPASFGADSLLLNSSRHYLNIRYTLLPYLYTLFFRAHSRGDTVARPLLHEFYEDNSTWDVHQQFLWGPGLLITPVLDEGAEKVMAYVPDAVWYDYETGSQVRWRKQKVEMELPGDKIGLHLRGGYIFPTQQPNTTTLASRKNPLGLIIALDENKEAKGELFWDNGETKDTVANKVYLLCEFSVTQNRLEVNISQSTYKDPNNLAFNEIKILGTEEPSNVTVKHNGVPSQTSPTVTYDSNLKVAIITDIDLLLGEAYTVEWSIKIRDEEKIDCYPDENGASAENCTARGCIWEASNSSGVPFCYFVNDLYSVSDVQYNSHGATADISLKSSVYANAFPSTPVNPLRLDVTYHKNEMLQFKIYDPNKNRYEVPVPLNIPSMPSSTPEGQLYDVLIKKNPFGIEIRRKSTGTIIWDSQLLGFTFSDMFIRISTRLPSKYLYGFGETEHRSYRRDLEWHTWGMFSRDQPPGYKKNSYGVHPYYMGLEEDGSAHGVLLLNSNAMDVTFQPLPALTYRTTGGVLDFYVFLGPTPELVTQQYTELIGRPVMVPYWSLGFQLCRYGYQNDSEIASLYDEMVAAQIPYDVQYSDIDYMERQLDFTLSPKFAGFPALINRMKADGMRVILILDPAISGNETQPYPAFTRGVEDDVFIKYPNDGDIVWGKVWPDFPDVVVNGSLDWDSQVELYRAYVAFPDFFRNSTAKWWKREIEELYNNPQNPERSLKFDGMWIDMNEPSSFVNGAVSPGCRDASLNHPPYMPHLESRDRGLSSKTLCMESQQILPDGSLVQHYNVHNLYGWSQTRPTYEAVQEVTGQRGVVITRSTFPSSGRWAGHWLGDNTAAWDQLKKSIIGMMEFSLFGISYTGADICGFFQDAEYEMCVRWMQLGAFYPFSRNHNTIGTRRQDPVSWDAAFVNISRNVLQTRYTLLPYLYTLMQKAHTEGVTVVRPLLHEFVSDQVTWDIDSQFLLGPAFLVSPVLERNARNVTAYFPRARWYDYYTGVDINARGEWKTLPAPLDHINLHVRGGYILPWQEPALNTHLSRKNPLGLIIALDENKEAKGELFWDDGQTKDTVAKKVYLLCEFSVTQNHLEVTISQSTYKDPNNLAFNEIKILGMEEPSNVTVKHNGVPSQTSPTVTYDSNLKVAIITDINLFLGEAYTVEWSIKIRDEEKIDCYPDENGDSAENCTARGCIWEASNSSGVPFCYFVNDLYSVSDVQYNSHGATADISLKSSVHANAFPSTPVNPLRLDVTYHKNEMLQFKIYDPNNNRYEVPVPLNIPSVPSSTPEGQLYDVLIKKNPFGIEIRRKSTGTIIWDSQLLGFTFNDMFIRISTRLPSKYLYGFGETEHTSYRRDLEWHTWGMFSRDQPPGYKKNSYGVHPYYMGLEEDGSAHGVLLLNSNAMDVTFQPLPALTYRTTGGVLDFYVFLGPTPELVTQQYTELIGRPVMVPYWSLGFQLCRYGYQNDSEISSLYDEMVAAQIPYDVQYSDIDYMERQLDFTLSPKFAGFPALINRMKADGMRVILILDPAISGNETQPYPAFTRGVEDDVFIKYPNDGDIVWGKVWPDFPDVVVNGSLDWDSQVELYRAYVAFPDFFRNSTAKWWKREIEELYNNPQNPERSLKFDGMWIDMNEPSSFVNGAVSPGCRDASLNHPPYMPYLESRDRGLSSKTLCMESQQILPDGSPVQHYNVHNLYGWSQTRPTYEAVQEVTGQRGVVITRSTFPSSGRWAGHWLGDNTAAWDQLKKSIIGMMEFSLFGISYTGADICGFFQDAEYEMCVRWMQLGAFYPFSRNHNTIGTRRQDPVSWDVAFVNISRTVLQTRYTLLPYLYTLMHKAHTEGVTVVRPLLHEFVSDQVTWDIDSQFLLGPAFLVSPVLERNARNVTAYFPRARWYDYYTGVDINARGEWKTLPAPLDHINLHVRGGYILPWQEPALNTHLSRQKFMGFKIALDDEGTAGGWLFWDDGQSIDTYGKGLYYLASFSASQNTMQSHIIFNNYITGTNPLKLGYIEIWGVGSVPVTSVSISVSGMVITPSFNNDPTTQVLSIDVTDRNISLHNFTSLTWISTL

Which IC50 does the source give for `COc1ccc(CNC(=O)c2c(NC(=O)c3cccnc3)sc3c2CCC3)cc1` here?
The IC50 was 87.6 µM.

`O=C(Nc1sc2c(c1C(=O)NCc1ccccc1)CCC2)c1cccnc1` was tested. Which IC50 did it give?
Its IC50 is 82.5 µM.

How did the IC50 turn out when `COc1cc(CNC(=O)c2c(NC(=O)c3cccnc3)sc3c2CCC3)ccc1O` was run?
Its IC50 is 93.6 µM.

With `COc1ccc(CNC(=O)c2c(NC(=O)c3cccnc3)sc3c2CCCC3)cc1` as the compound, how does the IC50 read?
Its IC50 is 30.2 µM.

With `O=C(Nc1sc2c(c1C(=O)NCc1ccccc1)CCCC2)c1cccnc1` as the compound, how does the IC50 read?
Its IC50 is 45.3 µM.

Which IC50 does the source give for `O=C(Nc1sc2c(c1C(=O)NCc1ccccn1)CCCC2)c1cccnc1` here?
The IC50 was 64.1 µM.

`O=C(Nc1sc2c(c1C(=O)NCc1cccnc1)CCCC2)c1cccnc1` was tested. Which IC50 did it give?
Its IC50 is 507 µM.

With `COc1cc(CNC(=O)c2c(NC(=O)c3cccnc3)sc3c2CCCC3)ccc1O` as the compound, how does the IC50 read?
Its IC50 is 9.9 µM.

Which IC50 does the source give for `COC(=O)c1ccc(CNC(=O)c2c(NC(=O)c3cccnc3)sc3c2CCCC3)cc1` here?
The IC50 was 87.8 µM.

Which IC50 does the source give for `O=C(Nc1sc2c(c1C(=O)NCc1ccccc1)CCCCC2)c1cccnc1` here?
Its IC50 is 63.4 µM.

How did the IC50 turn out when `COc1cc(CNC(=O)c2c(NC(=O)c3cccnc3)sc3c2CCCCC3)ccc1O` was run?
The IC50 was 35.4 µM.
